This note sets out measurements from article PMC4154947, “Polyisoprenylated methylated protein methyl esterase as a putative drug target for androgen-insensitive prostate cancer” (ecancermedicalscience, 2014).

The target in assay [1] is T1, Polyisoprenylated methylated protein methyl esterase (PMPMEase; human carboxylesterase 1, hCE1) (Homo sapiens, UniProt P23141).
T1 construct: gene CES1
T1 sequence (P23141 18-567): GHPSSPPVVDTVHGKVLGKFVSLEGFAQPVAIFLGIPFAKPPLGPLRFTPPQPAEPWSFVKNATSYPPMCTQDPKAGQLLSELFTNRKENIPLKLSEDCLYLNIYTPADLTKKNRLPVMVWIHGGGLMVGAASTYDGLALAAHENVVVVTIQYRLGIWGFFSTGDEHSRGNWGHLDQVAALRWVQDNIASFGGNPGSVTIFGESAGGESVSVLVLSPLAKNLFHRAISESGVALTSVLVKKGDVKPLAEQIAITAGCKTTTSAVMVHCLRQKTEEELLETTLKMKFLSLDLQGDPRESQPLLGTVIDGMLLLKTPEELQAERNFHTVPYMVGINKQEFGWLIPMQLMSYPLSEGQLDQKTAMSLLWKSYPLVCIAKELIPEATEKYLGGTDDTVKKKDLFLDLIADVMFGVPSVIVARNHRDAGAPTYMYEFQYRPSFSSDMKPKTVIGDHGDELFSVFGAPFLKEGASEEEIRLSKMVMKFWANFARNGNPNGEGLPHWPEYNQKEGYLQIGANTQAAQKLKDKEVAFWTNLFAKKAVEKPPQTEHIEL
Briefly: HPLC assay of RD-PNB hydrolysis in prostate cancer cell lysates (PC-3 value). The format is biochemical.

The target of assay [2] is T1, Polyisoprenylated methylated protein methyl esterase (PMPMEase; human carboxylesterase 1, hCE1). Briefly: HPLC-UV detection of substrate hydrolysis by prostate cell lysates. The format is cell-based.

The term IC50 denotes the concentration at which inhibition is half-maximal. Higher therefore signals weaker potency in that assay. As for `CC(C)=CCC/C(C)=C/CC/C(C)=C/CSCCS(=O)(=O)F` [L-28, 2-trans, trans-farnesylthioethanesulfonyl fluoride], the IC50 in assay [1] was 3 µM.
On to `COC(=O)[C@H](CSC/C=C(\C)CC/C=C(\C)CCC=C(C)C)NC(=O)c1ccc([N+](=O)[O-])cc1` [RD-PNB, N-(4-nitrobenzoyl)-S-trans, trans-farnesyl-L-cysteine methyl ester], for which the “HPLC-UV detection of substrate hydrolysis by prostate cell lysates” value in assay [2] is recorded as “Incubation of the specific PMPMEase substrate, RD-PNB, with lysates from the respective cell lines resulted in the hydrolysis”.
